# Test results published in the kinase profiling compilation of Christmann-Franck et al. (2016).
# Assays:
# Assay in all cases: radiometric filter-binding kinase assay, Kinase HotSpot
# Details in all cases: compound 0.5 µM; ATP 10 µM
# [1] = target: ABL1 (human) (UniProt P00519)
# [2] = target: AURKA (human) (UniProt O14965)
# [3] = target: BLK (human) (UniProt P51451)
# [4] = target: BRSK2 (human) (UniProt Q8IWQ3)
# [5] = target: CAMK2B (human) (UniProt Q13554)
# [6] = target: CDK2 CCNA2 (human) (UniProt P24941+P20248)
# [7] = target: CDK2 CCNE1 (human) (UniProt P24941+P24864)
# [8] = target: CLK1 (human) (UniProt P49759)
# [9] = target: CSNK1G2 (human) (UniProt P78368)
# [10] = target: DAPK3 (human) (UniProt O43293)
# [11] = target: DCLK2 (human) (UniProt Q8N568)
# [12] = target: EPHB3 (human) (UniProt P54753)
# [13] = target: FES (human) (UniProt P07332)
# [14] = target: FYN (human) (UniProt P06241)
# [15] = target: IGF1R (human) (UniProt P08069)
# [16] = target: LRRK2 (human) (UniProt Q5S007)
# [17] = target: MAPK10 (human) (UniProt P53779)
# [18] = target: MAPK13 (human) (UniProt O15264)
# [19] = target: MAPK9 (human) (UniProt P45984)
# [20] = target: MAPKAPK3 (human) (UniProt Q16644)
# [21] = target: MET (human) (UniProt P08581)
# [22] = target: MINK1 (human) (UniProt Q8N4C8)
# [23] = target: NEK2 (human) (UniProt P51955)
# [24] = target: NTRK1 (human) (UniProt P04629)
# [25] = target: PRKACG (human) (UniProt P22612)
# [26] = target: PRKCB2 (human) (UniProt P05771)
# [27] = target: PTK2 (human) (UniProt Q05397)
# [28] = target: RIPK2 (human) (UniProt O43353)
# [29] = target: ROCK1 (human) (UniProt Q13464)
# [30] = target: ROS1 (human) (UniProt P08922)
# [31] = target: RPS6KA2 KD1 KD2 (human) (UniProt Q15349)
# [32] = target: RPS6KA4 KD2 (human) (UniProt O75676)
# [33] = target: SRPK3 (human) (UniProt Q9UPE1)
# [34] = target: STK10 (human) (UniProt O94804)
# [35] = target: STK38 (human) (UniProt Q15208)
# [36] = target: STK39 (human) (UniProt Q9UEW8)
# [37] = target: TBK1 (human) (UniProt Q9UHD2)
# [38] = target: TLK2 (human) (UniProt Q86UE8)
# [39] = target: TSSK1B (human) (UniProt Q9BXA7)
# [40] = target: TTK (human) (UniProt P33981)
# [41] = target: TYRO3 (human) (UniProt Q06418)
# [42] = target: ULK3 (human) (UniProt Q6PHR2)
# Sequence of RIPK2 (human) (O43353 whole entry, looked up): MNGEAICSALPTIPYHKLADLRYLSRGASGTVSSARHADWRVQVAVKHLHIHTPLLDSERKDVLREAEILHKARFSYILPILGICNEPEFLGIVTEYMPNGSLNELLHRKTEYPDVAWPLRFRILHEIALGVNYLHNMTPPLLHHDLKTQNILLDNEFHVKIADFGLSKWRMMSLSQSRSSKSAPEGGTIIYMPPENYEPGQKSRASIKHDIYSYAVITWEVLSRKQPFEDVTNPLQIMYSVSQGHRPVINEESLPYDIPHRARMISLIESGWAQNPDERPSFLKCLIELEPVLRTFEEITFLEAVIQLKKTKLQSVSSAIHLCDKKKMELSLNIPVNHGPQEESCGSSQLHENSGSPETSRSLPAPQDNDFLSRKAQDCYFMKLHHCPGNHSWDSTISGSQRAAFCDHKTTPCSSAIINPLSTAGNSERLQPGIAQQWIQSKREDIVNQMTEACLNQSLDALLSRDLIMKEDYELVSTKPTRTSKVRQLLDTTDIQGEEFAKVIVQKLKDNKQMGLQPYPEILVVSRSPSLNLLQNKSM
# Sequence of CDK2 CCNE1 (human) (P24864 whole entry, looked up, other chains not shown): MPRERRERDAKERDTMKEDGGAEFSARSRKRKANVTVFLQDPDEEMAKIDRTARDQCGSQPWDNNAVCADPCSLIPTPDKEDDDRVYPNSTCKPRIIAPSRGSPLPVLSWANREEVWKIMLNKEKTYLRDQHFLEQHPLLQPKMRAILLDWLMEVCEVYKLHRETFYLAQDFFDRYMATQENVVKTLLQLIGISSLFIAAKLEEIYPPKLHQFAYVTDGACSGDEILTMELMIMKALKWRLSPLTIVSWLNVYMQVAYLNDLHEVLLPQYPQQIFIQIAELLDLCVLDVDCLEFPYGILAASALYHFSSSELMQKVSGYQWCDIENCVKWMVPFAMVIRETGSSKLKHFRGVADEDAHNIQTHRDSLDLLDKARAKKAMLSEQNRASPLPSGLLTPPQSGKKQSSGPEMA
# Sequence of NTRK1 (human) (P04629 whole entry, looked up): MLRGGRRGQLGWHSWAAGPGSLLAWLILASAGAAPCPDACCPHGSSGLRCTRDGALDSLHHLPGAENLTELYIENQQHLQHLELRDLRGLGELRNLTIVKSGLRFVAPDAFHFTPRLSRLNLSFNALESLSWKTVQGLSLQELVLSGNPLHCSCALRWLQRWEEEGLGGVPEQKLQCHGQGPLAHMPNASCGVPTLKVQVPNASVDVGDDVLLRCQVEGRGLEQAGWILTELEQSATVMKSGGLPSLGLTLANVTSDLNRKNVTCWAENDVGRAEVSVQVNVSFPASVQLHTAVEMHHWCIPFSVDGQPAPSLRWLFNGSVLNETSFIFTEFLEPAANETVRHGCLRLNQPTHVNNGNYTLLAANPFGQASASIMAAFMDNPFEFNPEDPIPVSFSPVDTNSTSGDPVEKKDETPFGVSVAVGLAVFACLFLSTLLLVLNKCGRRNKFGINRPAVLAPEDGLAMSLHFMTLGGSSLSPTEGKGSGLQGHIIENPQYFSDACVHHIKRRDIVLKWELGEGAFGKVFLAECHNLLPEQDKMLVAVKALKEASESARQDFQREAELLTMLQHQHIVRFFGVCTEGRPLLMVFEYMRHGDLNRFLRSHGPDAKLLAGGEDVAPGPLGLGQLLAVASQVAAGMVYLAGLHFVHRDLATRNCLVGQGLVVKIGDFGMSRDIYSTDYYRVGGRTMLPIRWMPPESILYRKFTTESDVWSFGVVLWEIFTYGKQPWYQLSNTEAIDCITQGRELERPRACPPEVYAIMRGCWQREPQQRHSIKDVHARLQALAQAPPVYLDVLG
# Sequence of EPHB3 (human) (P54753 whole entry, looked up): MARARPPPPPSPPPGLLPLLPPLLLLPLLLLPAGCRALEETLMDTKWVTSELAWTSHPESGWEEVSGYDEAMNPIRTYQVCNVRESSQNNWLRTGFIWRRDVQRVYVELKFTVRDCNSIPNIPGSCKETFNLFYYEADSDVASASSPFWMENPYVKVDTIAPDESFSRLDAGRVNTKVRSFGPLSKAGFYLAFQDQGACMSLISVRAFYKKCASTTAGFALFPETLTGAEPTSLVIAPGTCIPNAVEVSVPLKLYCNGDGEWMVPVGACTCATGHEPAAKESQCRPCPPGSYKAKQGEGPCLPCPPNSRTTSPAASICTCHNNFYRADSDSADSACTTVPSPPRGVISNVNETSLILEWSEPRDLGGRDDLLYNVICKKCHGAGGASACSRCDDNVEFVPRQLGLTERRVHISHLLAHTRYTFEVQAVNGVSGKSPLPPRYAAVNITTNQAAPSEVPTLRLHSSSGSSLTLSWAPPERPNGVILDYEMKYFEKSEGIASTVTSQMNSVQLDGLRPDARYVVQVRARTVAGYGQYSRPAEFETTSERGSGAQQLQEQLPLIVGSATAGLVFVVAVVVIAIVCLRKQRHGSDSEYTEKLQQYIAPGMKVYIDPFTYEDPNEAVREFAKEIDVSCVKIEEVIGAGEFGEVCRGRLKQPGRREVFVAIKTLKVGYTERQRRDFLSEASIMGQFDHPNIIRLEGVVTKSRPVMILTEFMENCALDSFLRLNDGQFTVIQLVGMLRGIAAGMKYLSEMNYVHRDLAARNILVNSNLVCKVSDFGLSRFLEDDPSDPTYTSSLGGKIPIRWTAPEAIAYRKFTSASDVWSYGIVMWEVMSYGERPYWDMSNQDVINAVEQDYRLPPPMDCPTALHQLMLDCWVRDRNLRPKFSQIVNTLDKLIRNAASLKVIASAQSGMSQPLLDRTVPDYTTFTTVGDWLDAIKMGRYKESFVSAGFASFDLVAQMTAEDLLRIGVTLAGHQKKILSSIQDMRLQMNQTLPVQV
# Sequence of MAPK13 (human) (O15264 whole entry, looked up): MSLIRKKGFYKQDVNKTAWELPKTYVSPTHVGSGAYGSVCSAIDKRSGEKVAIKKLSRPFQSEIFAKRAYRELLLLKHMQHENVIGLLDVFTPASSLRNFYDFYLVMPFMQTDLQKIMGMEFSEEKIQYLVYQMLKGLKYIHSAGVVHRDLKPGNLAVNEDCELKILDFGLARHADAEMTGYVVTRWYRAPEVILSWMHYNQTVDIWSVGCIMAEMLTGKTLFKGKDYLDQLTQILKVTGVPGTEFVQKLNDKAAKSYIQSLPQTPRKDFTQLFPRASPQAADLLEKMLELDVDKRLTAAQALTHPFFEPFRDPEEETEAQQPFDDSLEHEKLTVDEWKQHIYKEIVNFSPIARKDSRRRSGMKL
# Sequence of PRKCB2 (human) (P05771 whole entry, looked up): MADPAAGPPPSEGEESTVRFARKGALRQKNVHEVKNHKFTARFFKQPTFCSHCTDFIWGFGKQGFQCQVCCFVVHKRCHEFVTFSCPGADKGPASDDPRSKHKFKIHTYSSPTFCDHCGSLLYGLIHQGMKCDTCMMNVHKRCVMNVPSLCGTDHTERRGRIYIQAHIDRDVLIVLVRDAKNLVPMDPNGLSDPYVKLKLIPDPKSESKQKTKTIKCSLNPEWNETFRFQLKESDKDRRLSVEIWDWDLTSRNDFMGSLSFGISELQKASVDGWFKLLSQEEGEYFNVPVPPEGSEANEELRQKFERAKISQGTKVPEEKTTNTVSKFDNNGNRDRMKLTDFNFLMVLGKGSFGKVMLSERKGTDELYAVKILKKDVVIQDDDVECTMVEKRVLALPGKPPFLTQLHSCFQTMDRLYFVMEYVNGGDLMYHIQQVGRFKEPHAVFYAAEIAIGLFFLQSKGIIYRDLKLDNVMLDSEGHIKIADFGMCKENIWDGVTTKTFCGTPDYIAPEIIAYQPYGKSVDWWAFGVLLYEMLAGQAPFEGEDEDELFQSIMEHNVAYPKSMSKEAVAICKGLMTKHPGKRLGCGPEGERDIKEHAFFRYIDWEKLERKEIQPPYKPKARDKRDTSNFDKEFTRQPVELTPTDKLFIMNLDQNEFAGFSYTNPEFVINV
# Sequence of FYN (human) (P06241 whole entry, looked up): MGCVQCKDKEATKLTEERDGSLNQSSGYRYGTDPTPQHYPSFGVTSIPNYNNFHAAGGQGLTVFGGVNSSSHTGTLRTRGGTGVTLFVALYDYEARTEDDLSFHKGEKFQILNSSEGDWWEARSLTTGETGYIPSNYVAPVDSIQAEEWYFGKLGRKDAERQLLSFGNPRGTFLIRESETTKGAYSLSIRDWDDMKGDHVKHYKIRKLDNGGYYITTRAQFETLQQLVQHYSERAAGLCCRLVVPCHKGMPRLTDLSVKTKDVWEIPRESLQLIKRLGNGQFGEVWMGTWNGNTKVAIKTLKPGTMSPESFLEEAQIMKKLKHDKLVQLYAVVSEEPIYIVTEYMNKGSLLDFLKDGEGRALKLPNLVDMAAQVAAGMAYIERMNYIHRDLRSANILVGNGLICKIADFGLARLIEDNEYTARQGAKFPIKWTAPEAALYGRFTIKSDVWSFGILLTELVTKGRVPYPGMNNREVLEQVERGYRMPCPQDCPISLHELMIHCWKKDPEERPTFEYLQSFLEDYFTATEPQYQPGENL
# Sequence of STK38 (human) (Q15208 whole entry, looked up): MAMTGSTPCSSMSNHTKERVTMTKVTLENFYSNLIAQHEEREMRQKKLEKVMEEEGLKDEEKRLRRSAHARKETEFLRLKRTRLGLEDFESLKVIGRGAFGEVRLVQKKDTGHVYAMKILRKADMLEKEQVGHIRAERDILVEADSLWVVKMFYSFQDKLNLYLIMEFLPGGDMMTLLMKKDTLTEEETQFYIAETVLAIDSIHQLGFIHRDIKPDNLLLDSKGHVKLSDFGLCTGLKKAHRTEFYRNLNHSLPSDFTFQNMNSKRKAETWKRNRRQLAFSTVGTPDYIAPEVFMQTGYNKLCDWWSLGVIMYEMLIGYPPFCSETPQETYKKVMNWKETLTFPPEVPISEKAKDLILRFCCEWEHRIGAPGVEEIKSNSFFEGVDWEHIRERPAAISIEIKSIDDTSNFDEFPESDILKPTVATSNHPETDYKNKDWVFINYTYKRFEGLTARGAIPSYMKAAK
smiles,measurement,setting,value
CNc1cc2c(Nc3cccc(Br)c3)ncnc2cn1,residual activity,[1],89.8%
same,residual activity,[2],85.1%
same,residual activity,[3],103%
same,residual activity,[4],90.9%
same,residual activity,[5],95.8%
same,residual activity,[6],106%
same,residual activity,[7],88.6%
same,residual activity,[8],106%
same,residual activity,[9],95.8%
same,residual activity,[10],90.9%
same,residual activity,[11],90.4%
same,residual activity,[12],92.7%
same,residual activity,[13],96.9%
same,residual activity,[14],91.7%
same,residual activity,[15],115%
same,residual activity,[16],67%
same,residual activity,[17],96.1%
same,residual activity,[18],102%
same,residual activity,[19],96.5%
same,residual activity,[20],99.2%
same,residual activity,[21],106%
same,residual activity,[22],91.9%
same,residual activity,[23],88.3%
same,residual activity,[24],95.9%
same,residual activity,[25],115%
same,residual activity,[26],102%
same,residual activity,[27],90.2%
same,residual activity,[28],69.2%
same,residual activity,[29],98.8%
same,residual activity,[30],89.1%
same,residual activity,[31],83.5%
same,residual activity,[32],109%
same,residual activity,[33],97.1%
same,residual activity,[34],31.8%
same,residual activity,[35],98.5%
same,residual activity,[36],94%
same,residual activity,[37],94.5%
same,residual activity,[38],114%
same,residual activity,[39],60.2%
same,residual activity,[40],100%
same,residual activity,[41],98.8%
same,residual activity,[42],95.8%
